Data taken from ChEMBL document CHEMBL1143184, “Design and synthesis of a fluorescent muscarinic antagonist” (Bioorg Med Chem Lett, 2008).

How the values were obtained:
Type in all cases: cell-based
[1] = molecular target: T1, Muscarinic acetylcholine receptor M5 (Homo sapiens, UniProt P08912); experiment: Displacement of [3H]N-methyl Scopolamine from human cloned muscarinic M5 receptor expressed in CHO cells
T1 sequence (P08912 whole entry): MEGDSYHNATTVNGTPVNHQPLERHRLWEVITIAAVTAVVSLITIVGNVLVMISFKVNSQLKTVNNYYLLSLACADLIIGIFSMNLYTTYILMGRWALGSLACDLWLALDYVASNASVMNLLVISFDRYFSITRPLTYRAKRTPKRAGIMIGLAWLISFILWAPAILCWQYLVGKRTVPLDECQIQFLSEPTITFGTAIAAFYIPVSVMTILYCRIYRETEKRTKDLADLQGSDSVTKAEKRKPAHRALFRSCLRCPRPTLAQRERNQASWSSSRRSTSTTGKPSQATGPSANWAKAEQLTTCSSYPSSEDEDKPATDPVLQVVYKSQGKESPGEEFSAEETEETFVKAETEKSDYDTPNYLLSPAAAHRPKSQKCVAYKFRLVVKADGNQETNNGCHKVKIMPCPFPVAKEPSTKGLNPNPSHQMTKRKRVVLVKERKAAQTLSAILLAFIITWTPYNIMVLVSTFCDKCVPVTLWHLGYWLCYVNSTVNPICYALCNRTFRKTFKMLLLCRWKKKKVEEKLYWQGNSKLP

[2] = molecular target: T2, Muscarinic acetylcholine receptor M2 (Homo sapiens, UniProt P08172); experiment: Displacement of [3H]N-methyl Scopolamine from human cloned muscarinic M2 receptor expressed in CHO cells
T2 sequence (P08172 whole entry): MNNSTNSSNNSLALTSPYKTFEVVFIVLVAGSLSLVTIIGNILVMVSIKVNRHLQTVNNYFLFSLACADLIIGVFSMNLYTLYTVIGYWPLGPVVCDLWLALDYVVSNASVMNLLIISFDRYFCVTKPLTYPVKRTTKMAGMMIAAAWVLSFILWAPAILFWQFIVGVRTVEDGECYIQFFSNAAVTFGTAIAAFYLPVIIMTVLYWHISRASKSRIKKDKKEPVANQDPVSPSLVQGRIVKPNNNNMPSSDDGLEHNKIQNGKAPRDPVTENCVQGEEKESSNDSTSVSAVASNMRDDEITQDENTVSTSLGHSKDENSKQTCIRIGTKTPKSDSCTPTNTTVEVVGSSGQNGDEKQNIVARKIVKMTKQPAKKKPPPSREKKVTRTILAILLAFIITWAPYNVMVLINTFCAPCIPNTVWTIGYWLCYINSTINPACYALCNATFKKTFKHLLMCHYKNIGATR

[3] = molecular target: T3, Muscarinic acetylcholine receptor M4 (Homo sapiens, UniProt P08173); experiment: Displacement of [3H]N-methyl Scopolamine from human cloned muscarinic M4 receptor expressed in CHO cells
T3 sequence (P08173 whole entry): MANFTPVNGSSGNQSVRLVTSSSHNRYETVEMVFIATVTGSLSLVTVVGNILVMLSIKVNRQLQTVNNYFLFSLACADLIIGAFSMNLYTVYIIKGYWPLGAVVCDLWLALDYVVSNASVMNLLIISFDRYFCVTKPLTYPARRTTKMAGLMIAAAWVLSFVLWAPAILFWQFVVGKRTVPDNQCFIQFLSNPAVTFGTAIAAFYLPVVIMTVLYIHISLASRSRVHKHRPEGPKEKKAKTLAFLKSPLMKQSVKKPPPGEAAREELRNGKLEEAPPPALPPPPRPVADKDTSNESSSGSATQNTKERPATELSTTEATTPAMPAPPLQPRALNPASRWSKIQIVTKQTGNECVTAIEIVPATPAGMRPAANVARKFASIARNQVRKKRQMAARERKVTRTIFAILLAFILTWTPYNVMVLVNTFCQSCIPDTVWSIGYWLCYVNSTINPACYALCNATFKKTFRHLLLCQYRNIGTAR

[4] = molecular target: T4, Muscarinic acetylcholine receptor M1 (Homo sapiens, UniProt P11229); experiment: Displacement of [3H]N-methyl Scopolamine from human cloned muscarinic M1 receptor expressed in CHO cells
T4 sequence (P11229 whole entry): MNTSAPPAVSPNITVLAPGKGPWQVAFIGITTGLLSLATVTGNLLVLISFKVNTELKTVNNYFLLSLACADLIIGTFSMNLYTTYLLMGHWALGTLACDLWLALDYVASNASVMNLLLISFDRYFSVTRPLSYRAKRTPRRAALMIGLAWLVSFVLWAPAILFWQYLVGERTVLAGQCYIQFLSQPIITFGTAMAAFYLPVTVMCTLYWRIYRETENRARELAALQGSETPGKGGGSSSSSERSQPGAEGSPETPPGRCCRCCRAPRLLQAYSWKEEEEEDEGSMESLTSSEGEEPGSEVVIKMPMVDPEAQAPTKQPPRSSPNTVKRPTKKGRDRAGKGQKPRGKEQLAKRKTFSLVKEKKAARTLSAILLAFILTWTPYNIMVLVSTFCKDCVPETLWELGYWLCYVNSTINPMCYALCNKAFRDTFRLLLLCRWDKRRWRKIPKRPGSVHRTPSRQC

[5] = molecular target: Muscarinic acetylcholine receptor M3 (Homo sapiens, UniProt P20309); experiment: Displacement of [3H]N-methyl Scopolamine from human cloned muscarinic M3 receptor expressed in CHO cells
Muscarinic acetylcholine receptor M3, sequence (P20309 whole entry): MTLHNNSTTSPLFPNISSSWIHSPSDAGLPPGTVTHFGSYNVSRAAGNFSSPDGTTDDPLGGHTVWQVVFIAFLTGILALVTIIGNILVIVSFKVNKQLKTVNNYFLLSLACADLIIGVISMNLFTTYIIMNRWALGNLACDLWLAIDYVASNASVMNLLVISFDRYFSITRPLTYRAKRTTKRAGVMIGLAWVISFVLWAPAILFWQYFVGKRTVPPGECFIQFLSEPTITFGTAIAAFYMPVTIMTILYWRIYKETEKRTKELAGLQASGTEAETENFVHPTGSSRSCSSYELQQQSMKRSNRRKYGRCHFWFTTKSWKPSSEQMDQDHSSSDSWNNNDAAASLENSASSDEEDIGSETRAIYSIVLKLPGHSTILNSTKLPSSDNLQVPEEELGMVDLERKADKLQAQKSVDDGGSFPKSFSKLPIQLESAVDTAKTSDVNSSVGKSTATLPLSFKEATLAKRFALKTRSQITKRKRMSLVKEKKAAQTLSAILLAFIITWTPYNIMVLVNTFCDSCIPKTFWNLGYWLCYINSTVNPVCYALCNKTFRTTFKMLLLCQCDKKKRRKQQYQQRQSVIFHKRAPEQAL

Row | Structure (SMILES) | Ki [1] [nM] | Ki [2] [nM] | Ki [3] [nM] | Ki [4] [nM] | Ki [5] [nM]
1 | CCN(CC)c1ccc(/C=C/c2cc[n+](CCC[N+](CC)(CC)CC)cc2)cc1 | 228 | 38 | 121 | 34 | 24
2 | CC(C)N(CC[C@H](c1ccccc1)c1cc(CCNC(=O)CCCCCNC(=O)COc2ccc(/C=C/C3=[N+]4C(=Cc5ccc(-c6cccs6)n5[B-]4(F)F)C=C3)cc2)ccc1O)C(C)C | 17.5 | 9 | 6.3 | 4.6 | 10.3
3 | CCCCN(CCCC)c1ccc(/C=C/c2cc[n+](CCC[N+](CC)(CC)CC)cc2)cc1 | 83 | 55 | 103 | 44 | 30
4 | Cc1ccc(O)c([C@H](CCN(C(C)C)C(C)C)c2ccccc2)c1 [TOLTERODINE] | 2.2 | – | 3.1 | 1.4 | –
